The results in this text go back to patent publication US20240262832A1, “SMALL MOLECULE MODULATORS OF GLUCOCEREBROSIDASE ACTIVITY AND USES THEREOF” (Vanqua Bio, Inc., priority 2021, published 2024).

Structures are written as SMILES. A value given as a limit tells only on which side of the number the result lay.

The EC50 is the midpoint of the concentration-response curve. A low value points to higher potency in that assay.

This assay has as its target T1, GCase (Homo sapiens, UniProt P04062).
T1 construct: endogenous in cells; host or cells: HeLa cells
T1 sequence (P04062 40-536): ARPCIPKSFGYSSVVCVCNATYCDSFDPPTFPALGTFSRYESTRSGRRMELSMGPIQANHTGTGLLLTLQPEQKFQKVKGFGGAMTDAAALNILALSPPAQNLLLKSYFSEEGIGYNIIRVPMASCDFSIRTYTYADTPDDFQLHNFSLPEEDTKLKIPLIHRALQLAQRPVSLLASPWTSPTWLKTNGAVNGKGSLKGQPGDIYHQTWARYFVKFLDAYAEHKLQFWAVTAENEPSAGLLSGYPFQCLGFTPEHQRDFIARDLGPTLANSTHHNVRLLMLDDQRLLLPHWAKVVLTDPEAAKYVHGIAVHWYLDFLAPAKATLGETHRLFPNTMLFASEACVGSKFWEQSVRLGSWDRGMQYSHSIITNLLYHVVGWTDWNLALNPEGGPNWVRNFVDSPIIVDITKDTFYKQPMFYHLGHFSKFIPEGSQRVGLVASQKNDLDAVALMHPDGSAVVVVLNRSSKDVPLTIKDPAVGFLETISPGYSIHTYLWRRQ
Description: activation of GCase in a live cell PFB assay in HELA cells. The assay is classed as cell-based.
With `Cn1c(-c2ccccc2)nc2nc(C(=O)N3C[C@@H]4[C@@H](COc5cccnc5C(F)(F)F)[C@@H]4C3)cnc21` [Compound 105, (1-methyl-2-phenyl-1H-imidazo[4,5-b]pyrazin-5-yl)((1R,5S,6r)-6-(((2-(trifluoromethyl)pyridin-3-yl)oxy)methyl)-3-azabicyclo[3.1.0]hexan-3-yl)methanone], the half-maximal effective concentration (EC50) was more than 100 µM. For `CC(CC1CCCN(c2cnc3cnn(CC(F)F)c3n2)C1)c1cccnc1C(F)(F)F` (centres unmarked) [Compound 108, 1-(2,2-Difluoroethyl)-6-(3-(2-(2-(trifluoromethyl)pyridin-3-yl)propyl)piperidin-1-yl)-1H-pyrazolo[3,4-b]pyrazine] the value was 50 to 100 µM; for `O=C(c1ccc2cc[nH]c2c1)N1C[C@@H]2[C@@H](COc3cccnc3C(F)(F)F)[C@@H]2C1` [Compound 109, 6-[(1R,5S,6R)-6-({[2-(Trifluoromethyl)pyridin-3-yl]oxy}methyl)-3-azabicyclo[3.1.0]hexane-3-carbonyl]-1H-indole], 10 to 50 µM. For `CC(C)c1cc(C(=O)N2C[C@@H]3[C@@H](COc4cccnc4C(F)(F)F)[C@@H]3C2)[nH]n1` [Compound 110, (1R,5S,6R)-3-[3-(Propan-2-yl)-1H-pyrazole-5-carbonyl]-6-({[2-(trifluoromethyl)pyridin-3-yl]oxy}methyl)-3-azabicyclo[3.1.0]hexane] the value was 50 to 100 µM; for `CC(=O)N1CCC(n2ncc3ncc(N4CCCC(COc5ccccc5C(F)(F)F)C4)nc32)CC1` (centres unmarked) [Compound 111, 1-(4-(6-(3-((2-(trifluoromethyl)phenoxy)methyl)piperidin-1-yl)-1H-pyrazolo[3,4-b]pyrazin-1-yl)piperidin-1-yl)ethan-1-one], less than 10 µM; for `CC(=O)N1CCC(c2cncc(N3CCCC(COc4ccccc4C(F)(F)F)C3)n2)C(C)C1` (centres unmarked) [Compound 112, 1-(3-methyl-4-(6-(3-((2-(trifluoromethyl)phenoxy)methyl)piperidin-1-yl)pyrazin-2-yl)piperidin-1-yl)ethan-1-one], less than 10 µM. For `O=C(C1CC1)N1CCC(c2cncc(N3CCCC(COc4ccccc4C(F)(F)F)C3)n2)CC1` (centres unmarked) [Compound 113, Cyclopropyl(4-(6-(3-((2-(trifluoromethyl)phenoxy)methyl)piperidin-1-yl)pyrazin-2-yl)piperidin-1-yl)methanone] the value was less than 10 µM; for `CC1C(COc2cccnc2C(F)(F)F)CCCN1c1cnc2cnn(CC(F)F)c2n1` (centres unmarked) [Compound 116, 1-(2,2-Difluoroethyl)-6-(2-methyl-3-(((2-(trifluoromethyl)pyridin-3-yl)oxy)methyl)piperidin-1-yl)-1H-pyrazolo[3,4-b]pyrazine], less than 10 µM.

For the compound `CC1CCC(COc2cccnc2C(F)(F)F)CN1c1cnc2cnn(C3COC3)c2n1` (centres unmarked) [Compound 117, 6-(2-Methyl-5-(((2-(trifluoromethyl)pyridin-3-yl)oxy)methyl)piperidin-1-yl)-1-(oxetan-3-yl)-1H-pyrazolo[3,4-b]pyrazine], the EC50 is less than 10 µM. Then `CC1CCC(COc2cccnc2C(F)(F)F)CN1c1cnc2cnn(CC3COC3)c2n1` (centres unmarked) [Compound 118, 6-(2-Methyl-5-(((2-(trifluoromethyl)pyridin-3-yl)oxy)methyl)piperidin-1-yl)-1-(oxetan-3-ylmethyl)-1H-pyrazolo[3,4-b]pyrazine], with less than 10 µM. Then `FC(F)Cn1ncc2cnc(N3CCCC(COc4cccnc4C(F)(F)F)C3)nc21` (centres unmarked) [Compound 119, 1-(2,2-difluoroethyl)-6-(3-(((2-(trifluoromethyl)pyridin-3-yl)oxy)methyl)piperidin-1-yl)-1H-pyrazolo[3,4-d]pyrimidine], with 10 to 50 µM; and `Fc1cnc(OC[C@@H]2[C@H]3CN(c4cnc5cnn(C6COC6)c5n4)C[C@@H]23)c(F)c1` [Compound 120, 6-((1R,5S,6r)-6-(((3,5-difluoropyridin-2-yl)oxy)methyl)-3-azabicyclo[3.1.0]hexan-3-yl)-1-(oxetan-3-yl)-1H-pyrazolo[3,4-b]pyrazine], with 50 to 100 µM. The compound `FC(F)(F)c1ncccc1OC[C@@H]1[C@H]2CN(c3nccc(-c4nncs4)n3)C[C@@H]12` [Compound 121, (1R,5S,6r)-3-(4-(1,3,4-Thiadiazol-2-yl)pyrimidin-2-yl)-6-(((2-(trifluoromethyl)pyridin-3-yl)oxy)methyl)-3-azabicyclo[3.1.0]hexane] yielded an EC50 of 10 to 50 µM. For `CC1CCC(COc2cccnc2C(F)(F)F)CN1c1cnc2cnn(CC(F)(F)F)c2n1` (centres unmarked) [Compound 122, 6-(2-Methyl-5-(((2-(trifluoromethyl)pyridin-3-yl)oxy)methyl)piperidin-1-yl)-1-(2,2,2-trifluoroethyl)-1H-pyrazolo[3,4-b]pyrazine] the value was less than 10 µM; for `COCCn1ncc2ncc(N3CC(COc4cccnc4C(F)(F)F)CCC3C)nc21` (centres unmarked) [Compound 123, 1-(2-Methoxyethyl)-6-(2-methyl-5-(((2-(trifluoromethyl)pyridin-3-yl)oxy)methyl)piperidin-1-yl)-1H-pyrazolo[3,4-b]pyrazine], less than 10 µM; for `Fc1cc(F)cc(OC[C@@H]2[C@H]3CN(c4cnc5cnn(C6COC6)c5n4)C[C@@H]23)c1` [Compound 124], 10 to 50 µM. As to `CC1CC(COc2cccnc2C(F)(F)F)CN(c2cnc3cnn(CC(F)(F)F)c3n2)C1` (centres unmarked) [Compound 127, 6-(3-Methyl-5-(((2-(trifluoromethyl)pyridin-3-yl)oxy)methyl)piperidin-1-yl)-1-(2,2,2-trifluoroethyl)-1H-pyrazolo[3,4-b]pyrazine], the EC50 was less than 10 µM. For `CC1CCC(COc2cccnc2C(F)(F)F)CN1C(=O)c1ccc2cc[nH]c2c1` (centres unmarked) [Compound 128, (1H-Indol-6-yl)(2-methyl-5-(((2-(trifluoromethyl)pyridin-3-yl)oxy)methyl)piperidin-1-yl)methanone] the value was 10 to 50 µM; for `Cc1ccccc1CCC(=O)N1CCCC(COc2ccccc2)C1` (centres unmarked) [Compound 129], 10 to 50 µM. `CCCCCCC(C)C(=O)N1CCCC(COc2ccccc2)C1` (centres unmarked) [Compound 132] gave an EC50 of less than 10 µM. For `CC(CSC(F)(F)F)C(=O)N1CCCC(COc2ccccc2)C1` (centres unmarked) [Compound 133] the value was more than 100 µM; for `COc1ccc2c(c1)CCCC2CC(=O)N1CCCC(COc2ccccc2)C1` (centres unmarked) [Compound 135], 10 to 50 µM. For `O=C(c1ncc(Cl)s1)N1CCCC(COc2ccccc2)C1` (centres unmarked) [Compound 137] the value was more than 100 µM; for `CCc1nc2ccccc2n1CC(=O)N1CCCC(COc2ccccc2)C1` (centres unmarked) [Compound 140], 10 to 50 µM.

In the case of `COc1cccc(C(C(=O)N2CCCC(COc3ccccc3)C2)C(C)C)c1` (centres unmarked) [Compound 141], the concentration giving a half-maximal response (EC50) lay in the range of 10 to 50 µM.

For the compound `Cc1cnccc1-c1ccc(C(=O)N2CCCC(COc3ccccc3)C2)s1` (centres unmarked) [Compound 142], the EC50 is less than 10 µM.

As to `O=C(c1cnn(-c2ccc(Cl)cc2)n1)N1CCCC(COc2ccccc2)C1` (centres unmarked) [Compound 147], the concentration giving a half-maximal response (EC50) is 10 to 50 µM. For `O=C(CCc1cccc(C(F)(F)F)c1)N1CCCC(COc2ccccc2)C1` (centres unmarked) [Compound 150] the value was 10 to 50 µM. For `O=C(C1C[C@@H]2C[C@@H](C1)CC(F)(F)C2)N1CCCC(COc2ccccc2)C1` (some centres unmarked) [Compound 151] the value was 10 to 50 µM; for `COc1ccc(C(F)(F)C(=O)N2CCCC(COc3ccccc3)C2)cc1` (centres unmarked) [Compound 152], 10 to 50 µM; for `COC(C(=O)N1CCCC(COc2ccccc2)C1)c1ccc(Cl)cc1` (centres unmarked) [Compound 153], 10 to 50 µM.

`COc1cc(C(=O)N2CCCC(COc3ccccc3)C2)c(Cl)cc1Cl` (centres unmarked) [Compound 155] yielded an EC50 of 10 to 50 µM. `O=C(c1ccc(N2CCCCCC2)cc1)N1CCCC(COc2ccccc2)C1` (centres unmarked) [Compound 156]: the concentration giving a half-maximal response (EC50) lay within 10 to 50 µM. `O=C(Cc1cc(Cl)cs1)N1CCCC(COc2ccccc2)C1` (centres unmarked) [Compound 161]: the EC50 is 10 to 50 µM. For `Cc1nc(-n2cccc2)sc1C(=O)N1CCCC(COc2ccccc2)C1` (centres unmarked) [Compound 163] the value was 10 to 50 µM; for `Cc1cc(C(=O)N2CCCC(COc3ccccc3)C2)c(C)n1C(C)C` (centres unmarked) [Compound 170], 10 to 50 µM.

Regarding `COC1(C(=O)N2CCCC(COc3ccccc3)C2)CCCCCCC1` (centres unmarked) [Compound 176], the half-maximal effective concentration (EC50) lay in the range of 10 to 50 µM. Then `CCCCC1(C(=O)N2CCCC(COc3ccccc3)C2)CCC1` (centres unmarked) [Compound 177], with 10 to 50 µM; and `CCCCC[C@H]1CC[C@H](C(=O)N2CCCC(COc3ccccc3)C2)CC1` (some centres unmarked) [Compound 178], with less than 10 µM. Then `CN1CCc2cc(C(=O)N3CCCC(COc4ccccc4)C3)ccc21` (centres unmarked) [Compound 181], with 10 to 50 µM. For `COc1ccc(CCCC(=O)N2CCCC(COc3ccccc3)C2)cc1` (centres unmarked) [Compound 182] the value was 10 to 50 µM. In turn, `Cc1cccc(-c2ccccc2C(=O)N2CCCC(COc3ccccc3)C2)c1` (centres unmarked) [Compound 187] registered a concentration giving a half-maximal response (EC50) of 10 to 50 µM.

As to `O=C(c1cc(CC2CC2)on1)N1CCCC(COc2ccccc2)C1` (centres unmarked) [Compound 188], the EC50 is more than 100 µM. For `O=C(c1cc(-c2cccc(F)c2)no1)N1CCCC(COc2ccccc2)C1` (centres unmarked) [Compound 197] the value was 10 to 50 µM; for `O=C(Cc1ccc(OC(F)F)c(F)c1)N1CCCC(COc2ccccc2)C1` (centres unmarked) [Compound 198], 10 to 50 µM; for `C[C@@H]1[C@H](C(=O)N2CCCC(COc3ccccc3)C2)CCN1c1ccccc1` (some centres unmarked) [Compound 199], 10 to 50 µM. Compound `O=C(N1CCCC(COc2ccccc2)C1)C12CC3CC(CC(C3)C1)C2` (centres unmarked) [Compound 204] had an EC50 of 10 to 50 µM.
